Source: patent US20210040118A1, “IMMUNOMODULATORS, COMPOSITIONS AND METHODS THEREOF” (BETTA PHARMACEUTICALS CO., LTD, priority 2018, published 2021)

Molecular target: T1, PD-1/PD-L1 (Homo sapiens, UniProt Q9NZQ7)
T1 construct: Recombinant human PD-L1 protein (19-238) with a His-tag at the C-terminus; purchased AcroBiosystems PD1-H5229 (PD-L1); PD1-H5257 (PD-1)
Experiment: PD-1/PD-L1 homogenous time-resolved fluorescence (HTRF) binding assay
Conditions: recombinant human PD-L1 (19-238) His-tag / human PD-1 (25-167) Fc tag, class symbols
Summary of the method: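 Inhibitors were preincubated 40 min at 25°C with 10 nM His-tagged human PD-L1 (19-238) and 3 nM Fc-tagged human PD-1 (25-167) in PBS pH 7.4 containing Tween-20, BSA and 1% DMSO. After 60 min with europium anti-human IgG and anti-His-APC, 665/620 nm signal ratio gave IC50 via percent-control fit.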

T1 sequence (Q9NZQ7 19-238): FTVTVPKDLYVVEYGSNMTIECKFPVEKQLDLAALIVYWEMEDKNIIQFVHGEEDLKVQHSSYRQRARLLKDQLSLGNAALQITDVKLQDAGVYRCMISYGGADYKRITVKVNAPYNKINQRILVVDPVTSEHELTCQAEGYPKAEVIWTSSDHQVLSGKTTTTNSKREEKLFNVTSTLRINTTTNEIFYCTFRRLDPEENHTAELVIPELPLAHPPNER

IC50 [nM] | Compound
< 25 | Cc1c(NC(=O)c2ccc3c(n2)CCNC3)cccc1-c1cccc(NC(=O)c2ccc3c(n2)CCN(C)C3)c1C [Example 185, N-(2,2′-dimethyl-3′-(5,6,7,8-tetrahydro-1,6-naphthyridine-2-carboxamido)-[1,1′-biphenyl]-3-yl)-6-methyl-5,6,7,8-tetrahydro-1,6-naphthyridine-2-carboxamide]
100 to 200 | Cc1c(-c2cccc(N(C)C(=O)c3cc4c(s3)CNCC4)c2C)cccc1N(C)C(=O)c1cn2c(n1)CNCC2 [Example 5, N-(2,2′-dimethyl-3′-(N-methyl-5,6,7,8-tetrahydroimidazo[1,2-a]pyrazine-2-carboxamido)-[1,1′-biphenyl]-3-yl)-N-methyl-4,5,6,7-tetrahydrothieno[2,3-c]pyridine-2-carboxamide]
100 to 200 | Cc1c(NC(=O)c2nc3c(s2)CNCC3)cccc1-c1cccc(NC(=O)c2nc3ccc(N)cc3s2)c1C [Example 11, N-(3′-(6-aminobenzo[d]thiazole-2-carboxamido)-2,2′-dimethyl-[1,1′-biphenyl]-3-yl)-4,5,6,7-tetrahydrothiazolo[5,4-c]pyridine-2-carboxamide]
25 to 100 | O=C(c1nc2c(s1)CN(CC(F)F)CC2)N1CCc2c(-c3cccc4c3CCN4C(=O)c3nc4c(s3)CN(CC(F)F)CC4)cccc21 [Example 85, [4,4′-biindoline]-1,1′-diylbis((5-(2,2-difluoroethyl)-4,5,6,7-tetrahydrothiazolo[5,4-c]pyridin-2-yl)methanone)]
< 25 | Cc1c(NC(=O)c2nc3c(s2)CN(C(C)CO)CC3)cccc1-c1cccc(NC(=O)c2nc3c(s2)CN(C(C)CO)CC3)c1C (stereo not shown) [Example 45, N,N′-(2,2′-dimethyl-[1,1′-biphenyl]-3,3′-diyl)bis(5-(1-hydroxypropan-2-yl)-4,5,6,7-tetrahydrothiazolo[5,4-c]pyridine-2-carboxamide)]
< 25 | CS(=O)(=O)NCCN1CCc2nc(C(=O)N3CCc4c(-c5cccc6c5CCN6C(=O)c5nc6c(s5)CN(CCNS(C)(=O)=O)CC6)cccc43)sc2C1 [Example 117, N,N′-((([4,4′-biindoline]-1,1′-dicarbonyl)bis(6,7-dihydrothiazolo[5,4-c]pyridine-2,5(4H)-diyl))bis(ethane-2,1-diyl))dimethanesulfonamide]
< 25 | CC(=O)NCCNCc1cnc2c(Nc3cccc(-c4cccc(Nc5nccc6cc(CNCCNC(C)=O)cnc56)c4C)c3C)nccc2c1 [Example 152, N,N′-((((((2,2′-dimethyl-[1,1′-biphenyl]-3,3′-diyl)bis(azanediyl))bis(1,7-naphthyridine-8,3-diyl))bis(methylene))bis(azanediyl))bis(ethane-2,1-diyl))diacetamide]
< 25 | O=C(Nc1cccc(-c2cccc(NC(=O)c3nc4c(s3)CNCC4)c2Cl)c1Cl)c1ncc(CNCCO)s1 [Example 97, N-(2,2′-dichloro-3′-(5-(((2-hydroxyethyl)amino)methyl)thiazole-2-carboxamido)-[1,1′-biphenyl]-3-yl)-4,5,6,7-tetrahydrothiazolo[5,4-c]pyridine-2-carboxamide]
< 25 | Cc1c(NC(=O)c2cn3c(n2)CNCC3)cccc1-c1cccc(NC(=O)c2nc3c(s2)CNCC3)c1C [Example 10, N-(2,2′-dimethyl-3′-(5,6,7,8-tetrahydroimidazo[1,2-a]pyrazine-2-carboxamido)-[1,1′-biphenyl]-3-yl)-4,5,6,7-tetrahydrothiazolo[5,4-c]pyridine-2-carboxamide]
< 25 | Cc1nc(C(=O)Nc2cccc(-c3cccc4c3CCN4C(=O)c3nc(C)c(CN4CCCC[C@H]4C(=O)O)s3)c2)sc1CN1CCCC[C@H]1C(=O)O [Example 62, (S)-1-((2-(3-(1-(5-(((S)-2-carboxypiperidin-1-yl)methyl)-4-methylthiazole-2-carbonyl)indolin-4-yl)phenylcarbamoyl)-4-methylthiazol-5-yl)methyl)piperidine-2-carboxylic acid]
< 25 | COC(=O)CN1CCc2nc(C(=O)N3CCc4c(-c5cccc6c5CCN6C(=O)c5nc6c(s5)CN(CC(=O)OC)CC6)cccc43)sc2C1 [Example 102, dimethyl 2,2′-(([4,4′-biindoline]-1,1′-dicarbonyl)bis(6,7-dihydrothiazolo[5,4-c]pyridine-2,5(4H)-diyl))diacetate]
25 to 100 | Cc1c(NC(=O)c2nc3cc(N)ccc3[nH]2)cccc1-c1cccc(NC(=O)c2nc3c(s2)CNCC3)c1C [Example 12, N-(3′-(5-amino-1H-benzo[d]imidazole-2-carboxamido)-2,2′-dimethyl-[1,1′-biphenyl]-3-yl)-4,5,6,7-tetrahydrothiazolo[5,4-c]pyridine-2-carboxamide]
< 25 | Cc1nc(C(=O)Nc2cccc(-c3cccc(NC(=O)c4nc(C)c(CNCCO)s4)c3C)c2C)sc1CNCCO [Example 51, N,N′-(2,2′-dimethylbiphenyl-3,3′-diyl)bis(5-((2-hydroxyethylamino)methyl)-4-methylthiazole-2-carboxamide)]
< 25 | Cc1nc(C(=O)Nc2cccc(-c3cccc(NC(=O)c4nc(C)c(CN5CCCC5)s4)c3C)c2C)sc1CN1CCCC1 [Example 28, N,N′-(2,2′-dimethyl-[1,1′-biphenyl]-3,3′-diyl)bis(4-methyl-5-(pyrrolidin-1-ylmethyl)thiazole-2-carboxamide)]
< 25 | Cc1c(Nc2nccc3cc(CNCC(N)=O)cnc23)cccc1-c1cccc2c1CCN2C(=O)C1=NC2CCN(CC(=O)O)CC2S1 (stereo not shown) [Example 164, 2-(2-(4-(3-((3-(((2-amino-2-oxoethyl)amino)methyl)-1,7-naphthyridin-8-yl)amino)-2-methylphenyl)indoline-1-carbonyl)-3a,6,7,7a-tetrahydrothiazolo[5,4-c]pyridin-5(4H)-yl)acetic acid]
< 25 | Cc1nc(C(=O)Nc2cccc(-c3cccc(NC(=O)c4nc(C)c(CN[C@H](C(=O)O)C5CCOCC5)s4)c3C)c2C)sc1CN[C@H](C(=O)O)C1CCOCC1 [Example 53, (2S,2'S)-2,2′-(2,2′-(2,2′-dimethylbiphenyl-3,3′-diyl)bis(azanediyl)bis(oxomethylene)bis(4-methylthiazole-5,2-diyl))bis(methylene)bis(azanediyl)bis(2-(tetrahydro-2H-pyran-4-yl)acetic acid)]
< 25 | CNC(C)c1cnc(C(=O)Nc2cccc(-c3cccc(NC(=O)c4cnc(C(C)NC)cn4)c3C)c2C)cn1 (stereo not shown) [Example 180, N,N′-(2,2′-dimethyl-[1,1′-biphenyl]-3,3′-diyl)bis(5-(1-(methylamino)ethyl)pyrazine-2-carboxamide)]
> 200 | Cc1c(-c2cccc(N(C)Cc3nc4ccc(N)cc4s3)c2C)cccc1N(C)Cc1nc2c(s1)CNCC2 [Example 22, N3-((6-aminobenzo[d]thiazol-2-yl)methyl)-N3,N3′,2,2′-tetramethyl-N3′-((4,5,6,7-tetrahydrothiazolo[5,4-c]pyridin-2-yl)methyl)-[1,1′-biphenyl]-3,3′-diamine]

Compound | IC50 [nM]
COP(=O)(CCN1CCc2nc(C(=O)N3CCc4c(-c5cccc6c5CCN6C(=O)c5nc6c(s5)CN(CCP(=O)(OC)OC)CC6)cccc43)sc2C1)OC [Example 124, dimethyl (2-(2-(1′-(5-(2-(dimethoxyphosphoryl)ethyl)-4,5,6,7-tetrahydrothiazolo[5,4-c]pyridine-2-carbonyl)-[4,4′-biindoline]-1-carbonyl)-6,7-dihydrothiazolo[5,4-c]pyridin-5(4H)-yl)ethyl)phosphonate] | < 25
